The source of these data is patent US20230322715A1, “BROAD SPECTRUM ANTI-CANCER COMPOUNDS” (The Regents of the University of California, priority 2019, published 2023).

In one series the target is FTO (Homo sapiens (Human), UniProt Q9C0B1). Briefly: Fluorescence enzymatic inhibition assay (m6A7-Broccoli RNA / DFHBI-1T) against FTO. It is filed as biochemical. How it is done:
In order to determine their efficacy as FTO inhibitors, the compounds were screened by a fluorescence enzymatic inhibition assay developed previously by the Jaffrey lab.^44 Briefly, a nonfluorescent methylated RNA substrate termed “m6A7-Broccoli” is incubated with FTO in the presence of 2-oxoglutarate (300 μM), (NH4)2Fe(SO4)2·6H2O (300 μM), and L-ascorbate (2 mM) for 2 hours at room temperature in reaction buffer (50 mM NaHEPES, pH 6).
(§1) Inhibitors were added in concentrations ranging from 0.008-40 μM; all inhibitors were dissolved in DMSO and added to a final concentration of 0.2% DMSO. […] After incubation at room temperature for 2 hours, the plates were left at 4° C. overnight (16 hours) to allow DFHBI-1T to bind to A7-Broccoli RNA. […] Sigmoidal dose-response curves were fitted in GraphPad Prism 6. All assays were performed in triplicate, with additional repetitions added as necessary.

In a further series the target is ALKBH5 (Homo sapiens (Human), UniProt Q6P6C2). Briefly: Fluorescence enzymatic inhibition assay (m6A7-Broccoli RNA / DFHBI-1T) against ALKBH5. It is filed as biochemical. How it is done:
as §1

A short description of series [1]: elogD / log D determination.
The mark [2] stands for this setting: Table 700 compounds, read-out: Enzymatic IC50 FTO.
[3] abbreviates: Table 700 compounds, read-out: Enzymatic IC50 ALKBH5.
The mark [4] stands for this setting: ALK series, permeability data and IC50 tables, read-out: Enzymatic IC50 ALKBH5.
Setting [5] is: Table 800 compounds, read-out: FTO IC50.
The mark [6] stands for this setting: Table 800 compounds, read-out: ALKBH5 IC50.

“And” between values parts separate entries of the source, which are not always exact repeats. Identical values can stand only once. Like-named read-outs stand apart in the source and are kept apart here. Where only a bound is given, the exact number is not on record here.

Chain of FTO (Q9C0B1 whole entry): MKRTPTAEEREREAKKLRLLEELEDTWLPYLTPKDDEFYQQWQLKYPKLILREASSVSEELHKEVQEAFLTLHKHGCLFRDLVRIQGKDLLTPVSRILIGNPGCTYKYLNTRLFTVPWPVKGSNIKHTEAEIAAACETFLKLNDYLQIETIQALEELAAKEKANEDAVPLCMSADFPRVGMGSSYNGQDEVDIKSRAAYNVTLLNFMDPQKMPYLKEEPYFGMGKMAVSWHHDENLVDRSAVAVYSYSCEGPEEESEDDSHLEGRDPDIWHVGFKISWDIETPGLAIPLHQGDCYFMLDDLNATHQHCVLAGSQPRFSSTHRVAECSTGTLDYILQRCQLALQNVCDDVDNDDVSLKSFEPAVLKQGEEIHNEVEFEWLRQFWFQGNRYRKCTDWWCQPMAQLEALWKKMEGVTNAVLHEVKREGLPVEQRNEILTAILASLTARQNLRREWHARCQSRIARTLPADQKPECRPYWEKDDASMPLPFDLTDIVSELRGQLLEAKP
Chain of ALKBH5 (Q6P6C2 whole entry): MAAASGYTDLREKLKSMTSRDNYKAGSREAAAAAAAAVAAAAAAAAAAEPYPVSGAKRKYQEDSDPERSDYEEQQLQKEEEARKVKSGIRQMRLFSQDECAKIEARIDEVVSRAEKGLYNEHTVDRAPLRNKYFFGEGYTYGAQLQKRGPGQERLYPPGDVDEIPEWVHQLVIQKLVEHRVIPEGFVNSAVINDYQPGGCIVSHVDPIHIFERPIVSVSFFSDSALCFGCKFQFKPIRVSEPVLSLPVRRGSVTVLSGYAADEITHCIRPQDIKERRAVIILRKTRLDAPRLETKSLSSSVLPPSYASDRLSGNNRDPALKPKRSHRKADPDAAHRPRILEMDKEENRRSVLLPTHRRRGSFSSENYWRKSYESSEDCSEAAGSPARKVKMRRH

For the molecule `CCOC(=O)C1CC1C1NCCS1` (centres unmarked) [ALK-01], the IC50 (as a rule, the midpoint of a concentration-inhibition curve) was 103 µM and > 40 µM at FTO (setting [2]); 17.5 µM on ALKBH5 (setting [3]). In series [1] (Table 700 compounds), this molecule registered an elogD of 0.58.
Take `CC(C)(C)OC(=O)N1CCC(F)(C2NCCS2)C1` (centres unmarked) [ALK-02]: the IC50 at FTO (setting [2]) was greater than 40 µM; on ALKBH5 (setting [3]) it was 16.6 µM. The molecule further gave an elogD in series [1] (Table 700 compounds) of 1.40.
Taken in the same sequence, the figures for `O=C(O)N1CCC(F)(C2NCCS2)C1` (centres unmarked) [ALK-03] were greater than 40 µM, greater than 40 µM and 0.62.
In the case of `CC1(C)SCC(C)(C(=O)O)N1C(N)=O` (centres unmarked) [ALK-05], the 50% inhibitory concentration (IC50) at FTO (setting [2]) was greater than 40 µM; at ALKBH5 (setting [3]), 19.8 ± 1.8 µM. The molecule also came in with an elogD in series [1] (Table 700 compounds) of 0.16.
Turning to `O=C(O)[C@H]1NCCS1` [ALK-06], the IC50 is greater than 40 µM at FTO (setting [2]); 8.8 µM and 7.95 µM on ALKBH5 (setting [3]). Further, the elogD in series [1] (Table 700 compounds) turned out to be 0.89.
On to `CC1(C)S[C@@H]2[C@H](N)C(=O)N2[C@H]1C(=O)O` [ALK-07], for which the IC50 on FTO (setting [2]) was greater than 40 µM; on ALKBH5 (setting [3]), 10 ± 2.8 µM. In series [1] (Table 700 compounds), this molecule returned an elogD of 0.95.
For `C[C@]1(Cn2ccnn2)C(C(=O)O)N2C(=O)C[C@H]2S1(=O)=O` (some centres unmarked) [ALK-08], in that order: greater than 40 µM, 9.9 ± 1.3 µM and 0.36.
With `CC1(C)[C@H](C(=O)O)N2C(=O)C[C@H]2S1(=O)=O` [ALK-09], the IC50 on FTO (setting [2]) was greater than 40 µM; at ALKBH5 (setting [3]) it was 3.8 µM and 5.7 µM. The molecule also came in with an elogD in series [1] (Table 700 compounds) of 0.41.
Take `O=C1N[C@H](C(=O)O)CS1` [ALK-10]: the values for the IC50 at FTO (setting [2]) and at ALKBH5 (setting [3]) were greater than 40 µM and 1.7 ± 1.1 µM, respectively. In addition, the elogD in series [1] (Table 700 compounds) was determined as 0.54.
Taken in the same sequence, the figures for `COC(=O)C1COC(c2ccc(O)cc2)N1` (centres unmarked) [ALK-13] were greater than 40 µM, 6.7 ± 1.8 µM and 2.12.
On to `COC(=O)C1COC(c2ccccc2O)N1` (centres unmarked) [ALK-16], for which the figures for the IC50 at FTO (setting [2]), at ALKBH5 (setting [4]) and on ALKBH5 (setting [3]) were greater than 40 µM, 8.2 ± 2.3 µM and 8.2 ± 2.3 µM, respectively. Further, the elogD in series [1] (Table 700 compounds) came out at 1.44.
Turning to `COC(=O)C1COC(c2ccc(-c3ccccc3)o2)N1` (centres unmarked) [ALK-18], the IC50 at FTO (setting [2]) came out at 14.2 ± 3.1 µM; at ALKBH5 (setting [4]), 5.4 ± 1.4 µM; at ALKBH5 (setting [3]), 5.4 ± 0.7 µM. Also, the elogD in series [1] (Table 700 compounds) came out at 0.73.
With `COC(=O)C1COC(c2ccc(OC)c(Cl)c2)N1` (centres unmarked) [ALK-23], the values for the IC50 at FTO (setting [2]) and on ALKBH5 (setting [3]) were greater than 40 µM and 2.8 ± 0.5 µM, respectively. In series [1] (Table 700 compounds), this molecule returned an elogD of 3.01.
For `COC(=O)C1COC(c2ccc(-c3ccccc3)s2)N1` (centres unmarked) [ALK-25], in that order: greater than 40 µM, 0.9 ± 0.2 µM and 1.17.
In the case of `CCN(CC)c1ccc(C2NC(C(=O)OC)CS2)c(O)c1` (centres unmarked) [ALK-30], the figures for the IC50 at FTO (setting [2]) and at ALKBH5 (setting [3]) were greater than 40 µM and 1.4 ± 0.4 µM, respectively. In series [1] (Table 700 compounds), this molecule returned an elogD of 0.67.
Take `O=S(=O)(NCC1CCCOC1)c1ccc(OC(F)(F)F)cc1` (centres unmarked) [TR-ALKBH5-04]: the results for the IC50 at FTO (setting [5]) and at ALKBH5 (setting [6]) were 19.7 µM and 0.24 µM, respectively. For the same molecule, in series [1] (Table 800 compounds), the elogD turned out to be 0.37.
As to `CC(=O)c1ccc(S(=O)(=O)NCC2CCCOC2)cc1` (centres unmarked) [TR-ALKBH5-05], the results for the IC50 at FTO (setting [5]) and at ALKBH5 (setting [6]) were greater than 40 µM and 1.9 µM, respectively. In series [1] (Table 800 compounds), the elogD came to 1.12.
Taken in the same sequence, the figures for `O=S(=O)(NCC1CCCOC1)c1ccccc1` (centres unmarked) [TR-ALKBH5-08] were 6.4 µM, 0.5 µM and 0.89.
Taken in the same sequence, the figures for `O=S(=O)(Nc1ccc(Cl)c(C(F)(F)F)c1)c1ccc(OC(F)(F)F)cc1` [TR-ALKBH5-25] were greater than 40 µM, 1.6 µM and 1.50.
For `O=S(=O)(Nc1cccs1)c1ccc(OC(F)(F)F)cc1` [TR-ALKBH5-27], in that order: greater than 40 µM, 2 µM and 0.36.
Regarding `O=S(=O)(Nc1cc(Cl)ccc1O)c1ccc(OC(F)(F)F)cc1` [TR-ALKBH5-29], the IC50 on FTO (setting [5]) was greater than 40 µM; at ALKBH5 (setting [6]), 0.11 µM. In addition, the elogD in series [1] (Table 800 compounds) amounted to 0.88.
